From patent US20140206559A1, “ASSAY FOR […] OF TUMOR CELLS” (PRESIDENT AND FELLOWS OF HARVARD COLLEGE, priority 2011, published 2014)

System: invasive cells (PC-3 and DU-154)
Test: three-dimensional in vitro invasion assay (CiGiP, paper-Matrigel layers, calcein stain)
Format: cell-based
Settings: PC-3 and DU-154 prostate cancer cells in stacked paper-Matrigel layers; 1-5 days culture of stacked layers; inhibitor of actin-based motility present
Procedure: The following invasive potential of the cell lines were assessed using the 3D in vitro assay as disclosed herein: Breast cancer cells; triple negative highly invasive cell line MDA-MB-231. Prostate cancer cells: highly invasive PC-3 and DU-154 isolate from bone and brain metastases, weakly invasive LNCaP and CWR-22 lines. Control cells included normal prostate epithelial cells (RWPE-1) and fibroblasts (HIN 3T3) as negative controls.
Permeation of the suspension of cells in Matrigel into paper yielded thin (200 μm) layers of Matrigel with cells trapped within [Derda et al, PNAS 2009; Derda et al, PLoS submitted]. […] The inventors also assessed other combinations of different numbers of seed-substrates and different numbers of receiving-substrates.
After additional 1-5 days of culture of the 3-D assay of stacked layers, the layers were separated by peeling apart and the amount of cells (e.g., the number, density or quantity) of cells in one or more receiving layer was measured, and optionally the amount of the amount of cells (e.g., the number, density or quantity) of cells in the seed-substrate layer. […]
To measure the quantity of cells in each layer, the layers were incubated in solution of calcein which stains viable cells and the layers were imaged using fluorescent scanner at 100 micron resolution. […]

## C=C1[C@@H](C)[C@H]2[C@H](Cc3ccccc3)NC(=O)[C@]23[C@H](OC(C)=O)/C=C/[C@@](C)(O)C(=O)[C@@H](C)C/C=C/[C@H]3[C@@H]1O [cytoclasin D]
  invasion of the upper "receiver-substrate" layer by invasive cells: blocked
